Test [1] deals with E. coli (ATCC 25922). Nature of the test: Time-kill curve. Type of test: cell-based. The conditions noted are these: 1×MIC to 8×MIC, 0-24 hours. Here is the method:
Based on the MIC test results, the best performing active compounds were selected for time-kill curve studies.
(2) Sampling: At 0, 2, 4, 6, 8, 12, and 24 hours, aspirate 100 μL of the mixture
(3) Serial dilution and coating: Use 10 mM PBS buffer to dilute 10 times continuously, and evenly coat the diluted liquid on the agar plate
(4) Incubation and counting: Incubate in a 37° C. incubator for 24 hours and count the colonies.
(5) Sterilization curve drawing: Draw the curve of colony count change over time at different compound concentrations, and record the results as shown in FIG. 1.

Test [2] relates to MRSA (ATCC 33591). In words: Bacterial extracellular conductivity. The conditions noted are these: 1×MIC and 2×MIC, vs blank control. Type of test: cell-based, S. aureus. From the text: Changes in conductivity can reflect the permeability and integrity of the cell membrane. When the cell membrane is damaged or the permeability increases, the flow of ions inside and outside the cell will increase, resulting in an increase in conductivity. In the fields of biology and cell biology, conductivity measurements are often used to assess changes in cell membrane integrity.
MRSA and E. coli cells in the logarithmic growth phase were first resuspended after high-speed centrifugation and repeated PBS buffer washing and adjusted to the appropriate optical density. Next, different concentrations of compound i (1×MIC and 2×MIC) were added to the cell suspension, and a blank control group was set. All samples were incubated at 37° C. and sampled at set time points (0, 1, 2, 4, 6, and 8 hours). […] This series of operations helps to reveal the specific mechanism of action of compound i on bacterial growth and cell structure.

In test [3] the test system is MRSA (ATCC 33591). In words: Cell membrane potential, DiBAC4 (3) probe. The conditions noted are these: 1×MIC to 8×MIC, vs blank control.
The test system of test [4] is Staphylococcus aureus (MRSA, ATCC 33591). Nature of the test: Mouse MRSA systemic infection model, survival rate. Type of test: in vivo. The conditions noted are these: MRSA-infected mice, 5, 10, 20 mg/kg single intraperitoneal injection 1 hour after infection, 7-day survival. Here is the method:
Establishment of a mouse model of MRSA systemic infection
(1) Solution preparation and bacterial activation: Reference Example 15.
(2) Pretreatment: All mice received cyclophosphamide treatment, with the first intraperitoneal injection of 150 mg/kg cyclophosphamide 4 days before infection and the second intraperitoneal injection of 100 mg/kg cyclophosphamide 1 day before infection.
(3) Control group treatment: Mice in the blank control group received intraperitoneal injection of 0.9% saline.
(4) Infection process: Mice were anesthetized with isoflurane and infected by intraperitoneal injection of Staphylococcus aureus (MRSA, ATCC 33591) at a concentration of 10^7 CFU/mL.
(1) Experimental groups: The doses of compound i and valnemulin were 5, 10, and 20 mg/kg, respectively (the solvent was dimethyl sulfoxide: Tween-80: sterile water=1:0.5:9.5);
A model control group (administered with a solvent after infection with bacteria) and a blank control group (administered with a solvent only without infection with bacteria) were set up, with 10 mice in each group, half of which were male and half were female.
(2) Time point: Intraperitoneal injection was performed in the experimental group mice at 1 hour after infection.
(3) Therapeutic dose: The mice in the experimental groups received intraperitoneal injection of 0.5 mL of compound i and valnemulin at different concentrations. […]

Test [5] has as its system E. coli (ATCC 25922). In words: Bacterial intracellular pH (cFDA-SE). The conditions noted are these: control 6.16±0.10. Type of test: cell-based. The procedure: (§1) The definition of pHin is based on the ratio of the pH-sensitive wavelength (490 nm) to the pH-insensitive wavelength (440 nm).
(§2) First, prepare fluorescently labeled bacterial cells. MRSA and E. coli bacteria were removed from the culture in the logarithmic growth phase, and after high-speed centrifugation and washing with HEPES buffer, the bacteria were labeled with carboxyfluorescein succinimidyl ester (cFDA-SE), and the fluorescent dye was bound to the cells by incubation.
(§3) Next, PBS buffer was used to wash and remove the unbound fluorescent dye, and then the cells were suspended in the buffer and stored in a low-temperature environment. The second step was to determine the intracellular pH. The fluorescently labeled cell suspension was added to a test tube containing different concentrations of compound i and transferred to a black opaque 96-well plate for incubation. The fluorescence value was measured at specific excitation and emission wavelengths using a full-wavelength scanning multifunctional reader to calculate the intracellular pH. The last step is the calibration of the intracellular pH. The standard curve was determined using buffer solutions with different pH values to ensure accurate determination of the pH value inside the bacterial cells. […]

The subject of test [6] is MRSA (ATCC 33591). Nature of the test: Bacterial intracellular pH (cFDA-SE). Type of test: cell-based, S. aureus. The conditions noted are these: control 6.57±0.10. Here is the method: as §1, §2, §3

SMILES strings stand for the structures.

Consider `C=C[C@]1(C)C[C@@H](OC(=O)CSc2nc3cc[n+](Cc4ccc(C)cc4)cc3[nH]2)[C@]2(C)[C@H](C)CC[C@]3(CCC(=O)[C@H]32)[C@@H](C)[C@@H]1O` [Compound i, 5-(4-methylbenzyl)-2-((2-(((3aR,4R,5R,7S,8S,9R,9aS,12R)-8-hydroxy-4,7,9,12-tetramethyl-3-oxo-7-vinyldecahydro-4,9a-propancyclopenta[8]cyclo-5-yl)oxy)-2-oxoethyl)thio)-3H-imidazo[4,5-C]pyridine-5-ium], for which, in the test with E. coli (ATCC 25922) [1], the “bactericidal efficiency (time-kill curve) compared with retapamulin” value is given as “higher bactericidal efficiency”. The extracellular conductivity result in the test on MRSA (ATCC 33591) [2] is “increased”. Besides, in the test on MRSA (ATCC 33591) [3], the “membrane potential, DiBAC4 (3) fluorescence intensity” value is on record as “significant dose-dependent increase”. In addition, the “survival rate of mice” value in test [4] is given as “significantly higher than the survival rate of mice given warnemulin”. The “intracellular pH after treatment” value worked out at 4.79±0.10 with E. coli (ATCC 25922) [5] (1×MIC), 3.58±0.10 in the test with E. coli (ATCC 25922) [5] (2×MIC), 4.66±0.12 in the test with MRSA (ATCC 33591) [6] (1×MIC) and 2.96±0.09 with MRSA (ATCC 33591) [6] (2×MIC).

These data come from patent publication US12275734B1, “Pleuromutilin onium salt derivative containing a 3H-imidazo[4,5-c]pyridine side chain, and a preparation method and application thereof” (SHAANXI UNIVERSITY OF SCIENCE AND TECHNOLOGY, priority 2024, dated 2025).
